The results in this text go back to patent US20060084172A1, “Method for producing stem cells with increased developmental potential” (Julius-Maximilians-Unversitat Wurzburg, priority 2001, published 2006).

The test system of one assay is Oct4 gene. As to the kind of experiment: Oct4-gene specific RT-PCR after incubation of neural stem cells. In kind it is cell-based, mouse. The settings on record: 2-day incubation of neural stem cells (NSC #417, NSC #125); 150-250 nanomolar Trichostatin A and/or 300-600 nanomolar 5-aza-2′ deoxycytidine; HPRT normalization. On the procedure:
For investigating whether the incubation of adult neural stem cells of Example 1 with deacetylase inhibitors (e.g. Trichostatin A) and/or nucleotide analogs (e.g. 5-aza-2′ deoxycytidine), which prevent a methylation, influences the gene expression, the stem cells were incubated with one of these substances or a mixture of these substances. This was performed in Neurobasal medium, B27 supplement, 20-40 ng EGF, 20-40 ng FGF-2, 150-250 nanomolar Trichostatin A and/or 300-600 nanomolar 5-aza-2′ deoxycytidine for 2 or 4 days. Subsequently to the incubation, RNA was isolated from the cells, and cDNA was produced by means of the enzyme reverse transcriptase. By using gene-specific primers, the gene expression of the Oct4 gene was investigated. The Oct4 gene serves as an example of a development-specific regulator gene. It is only active in very early development stages (zygote, morula, blastula). Later, the expression is restricted to germ cells. The Oct4 gene is not transcribed in the adult organism outside the germ cells, thus also not in somatic stem cells. The Oct4 gene is thus only active in cells, which have a development potential larger than that of the somatic stem cells [see Pesce M, Anastassiedies K, Scholer H R (1999) Oct4: lessons of totipotency from embryonic stem cells. Cells Tissues Organs 165:144-152]. […] Under these conditions, no Oct4 expression was detected anymore. […]

The test system of the next assay is mouse blastocysts. As to the kind of experiment: Injection of treated neural stem cells into blastocysts, Y chromosome-specific PCR of tissues of chimeric animals. In kind it is in vivo. To be noted: treated neural stem cells injected into blastocysts, animals examined at 4 weeks, FIG. 4b versus untreated FIG. 4a. An excerpt: In order to determine the plasticity of the employed somatic stem cell types, neural and hematopoietic stem cells of the Examples 1 and 2 were isolated and injected into mouse blastocysts (see FIG. 2). From the blastocyst develops the complete embryo and later the adult animal. By this method, the injected stem cells are subjected to all inductive processes, which take place during the development of the embryo. If the used hematopoietic or neural stem cells should have the capability to differentiate to all or many tissues or cell types of the adult animal, then descendants of the injected stem cells should be detectable for the developed animal in several different or all tissues and organs. If this detection is positive and the donor cells carry foreign, tissue-specific markers and perform foreign, tissue-specific functions, then the treatment of the somatic stem cells has led to an increased plasticity.
In order to investigate the development potential of somatic stem cells treated according to Example 4, neural stem cells of Example 4 (from male animals) were washed and injected (20-40 pieces) into blastocysts, which were isolated from superovulated females after object pairing. […] Male donor cells, which originate from the injected neural stem cells (NSC), were detected by a Y chromosome-specific PCR reaction (YMT primer). […]

SMILES strings stand for the structures.

Regarding `CC(/C=C/C(=O)NO)=C\[C@@H](C)C(=O)c1ccc(N(C)C)cc1` [Trichostatin A], the “Oct4 gene expression (RT-PCR)” value in the assay with Oct4 gene is given as “reactivates the Oct4 gene”. The “distribution spectrum of donor cells in tissues” value in the assay with mouse blastocysts is “substantially wider distribution spectrum”.
